Laboratory results as given in US20090156577A1, “7-AMINO ALKYLIDENYL-HETEROCYCLIC QUINOLONES AND NAPHTHYRIDONES” (priority 2004, published 2009).
Values after ≈ are worked out from the molar mass of the structure shown. Read-outs that look alike come from different tables or passages of the source.

Tested on: pathogenic bacteria
Assay: MIC by microdilution broth method (NCCLS M7-A4), in vitro antibacterial activity
Format: cell-based
Procedure, shortened: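 Broth microdilution per NCCLS M7-A4: two-fold serial dilutions in cation-adjusted Mueller-Hinton broth, inoculum about 5×10^4 CFU/well. Trays incubated 16–20 h at 35 °C. MIC read by comparing growth against no-compound growth controls.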

[1] = Staphylococcus aureus, Organism A: Staphylococcus aureus OC4172, read-out: MIC
[2] = Streptococcus pneumoniae, ATCC49619, Organism E: Streptococcus pneumoniae ATCC 49619, read-out: MIC
[3] = Streptococcus pneumoniae, Organism B: fluoroquinolone-resistant clinical isolate of Streptococcus pneumoniae (QRDR amino acid substitutions)
[4] = Streptococcus pneumoniae, Organism C: fluoroquinolone-resistant clinical isolate of Streptococcus pneumoniae (QRDR amino acid substitutions)
[5] = Streptococcus pneumoniae, Organism D: fluoroquinolone-resistant clinical isolate of Streptococcus pneumoniae (QRDR amino acid substitutions)

| SMILES | MIC [1] [µg/mL] | MIC [2] [µg/mL] | MIC [3] [µg/mL] | MIC [4] [µg/mL] | MIC [5] [µg/mL] | MIC (Organism A: Staphylococcus aureus OC4172) [µg/mL] | MIC (Organism C: fluoroquinolone-resistant clinical isolate of Streptococcus pneumoniae (QRDR amino acid substitutions)) [µg/mL] | MIC (Organism E: Streptococcus pneumoniae ATCC 49619) [µg/mL] |
| --- | --- | --- | --- | --- | --- | --- | --- | --- |
| CN(C)CCNCC(Cl)=C1CCN(c2nc3c(cc2F)c(=O)c(C(=O)O)cn3C2CC2)CC1 [Compound 177, 7-{4-[1-Chloro-2-(2-dimethylamino-ethylamino)-ethylidene]-piperidin-1-yl}-1-cyclopropyl-6-fluoro-4-oxo-1,4-dihydro-[1,8]naphthyridine-3-carboxylic acid] | 1 (≈ 2.09 µM) | 4 (≈ 8.37 µM) | 8 (≈ 16.7 µM) | > 16 | > 16 | – | – | – |
| CC(CN)=C1CCN(c2cc3c(cc2F)c(=O)c(C(=O)O)cn3C2CC2)CC1 [Compound 64, 7-[4-(2-Amino-1-methyl-ethylidene)-piperidin-1-yl]-1-cyclopropyl-6-fluoro-4-oxo-1,4-dihydro-quinoline-3-carboxylic acid] | 0.12 (≈ 0.311 µM) | 1 (≈ 2.59 µM) | 8 (≈ 20.8 µM) | 2 (≈ 5.19 µM) | 8 (≈ 20.8 µM) | – | – | – |
| COc1c(N2CCC/C(=C(/F)CN)C2)c(F)cc2c(=O)c(C(=O)O)cn(C3CC3)c12 [Compound 388, (Z)-7-[3-(2-Amino-1-fluoro-ethylidene)-piperidin-1-yl]-1-cyclopropyl-6-fluoro-8-methoxy-4-oxo-1,4-dihydro-quinoline-3-carboxylic acid] | ≤ 0.25 | 0.5 (≈ 1.19 µM) | 2 (≈ 4.77 µM) | 8 (≈ 19.1 µM) | 2 (≈ 4.77 µM) | – | – | – |
| CC(CN)=C1CCN(c2nc3c(cc2F)c(=O)c(C(=O)O)cn3C2CC2)CC1 [Compound 2, 7-[4-(2-Amino-1-methyl-ethylidene)-piperidin-1-yl]-1-cyclopropyl-6-fluoro-4-oxo-1,4-dihydro-[1,8]naphthyridine-3-carboxylic acid] | 0.06 (≈ 0.155 µM) | 0.12 (≈ 0.311 µM) | 0.25 (≈ 0.647 µM) | 1 (≈ 2.59 µM) | 1 (≈ 2.59 µM) | – | – | – |
| COc1c(N2CC(=C(Cl)CO)C2)c(F)cc2c(=O)c(C(=O)O)cn([C@@H]3C[C@@H]3F)c12 [Compound 363, 7-[3-(1-Chloro-2-hydroxy-ethylidene)-azetidin-1-yl]-6-fluoro-(1R,2S)-1-(2-fluoro-cyclopropyl)-8-methoxy-4-oxo-1,4-dihydro-quinoline-3-carboxylic Acid] | 0.03 (≈ 0.0703 µM) | 0.5 (≈ 1.17 µM) | 4 (≈ 9.37 µM) | > 16 | 16 (≈ 37.5 µM) | – | – | – |
| COc1c(N2CCC/C(=C/CN)C2)c(F)cc2c(=O)c(C(=O)O)cn(C3CC3)c12 [Compound 389, (Z)-7-[3-(2-Amino-ethylidene)-piperidin-1-yl]-1-cyclopropyl--6-fluoro-8-methoxy-4-oxo-1,4-dihydro-quinoline-3-carboxylic acid] | ≤ 0.015 | 0.06 (≈ 0.149 µM) | 0.5 (≈ 1.25 µM) | 1 (≈ 2.49 µM) | 0.5 (≈ 1.25 µM) | – | – | – |
| COc1c(N2CCC(=C(C)CN)CC2)c(F)cc2c(=O)c(C(=O)O)cn(C3CC3)c12 [Compound 70, 7-[4-(2-Amino-1-methyl-ethylidene)-piperidin-1-yl]-1-cyclopropyl-6-fluoro-8-methoxy-4-oxo-1,4-dihydro-quinoline-3-carboxylic acid] | – | – | – | – | 0.25 (≈ 0.602 µM) | 0.03 (≈ 0.0722 µM) | 0.25 (≈ 0.602 µM) | 0.12 (≈ 0.289 µM) |
| COc1c(N2CCC(=C(Cl)CN)CC2)c(F)c(C)c2c(=O)c(C(=O)O)cn(C3CC3)c12 [Compound 455, 7-[4-(2-Amino-1-chloro-ethylidene)-piperidin-1-yl]-1-cyclopropyl-6-fluoro-8-methoxy-5-methyl-4-oxo-1,4-dihydro-quinoline-3-carboxylic Acid] | ≤ 0.015 | 0.25 (≈ 0.556 µM) | 0.12 (≈ 0.267 µM) | 2 (≈ 4.45 µM) | 1 (≈ 2.22 µM) | – | – | – |
| COc1c(N2CC(=C(C)CN)C2)c(F)cc2c(=O)c(C(=O)O)cn(C3CC3)c12 [Compound 391, 7-[3-(2-Amino-1-methyl-ethylidene)-azetidin-1-yl]-1-cyclopropyl-6-fluoro-8-methoxy-4-oxo-1,4-dihydro-quinoline-3-carboxylic acid] | 0.06 (≈ 0.155 µM) | 2 (≈ 5.16 µM) | 8 (≈ 20.6 µM) | > 16 | 8 (≈ 20.6 µM) | – | – | – |
| N#C/C(CN)=C1\CCCN(c2nc3c(cc2F)c(=O)c(C(=O)O)cn3C2CC2)C1 [Compound 441, (E)-7-[3-(2-Amino-1-cyano-ethylidene)-piperidin-1-yl]-1-cyclopropyl-6-fluoro-4-oxo-1,4-dihydro-[1,8]naphthyridine-3-carboxylic Acid] | 0.5 (≈ 1.26 µM) | 8 (≈ 20.1 µM) | 8 (≈ 20.1 µM) | > 16 | > 16 | – | – | – |
| O=C(O)c1cn(C2CC2)c2cc(N3CCC(=C(Cl)CN4CCCCC4)CC3)c(F)cc2c1=O [Compound 300, 7-[4-(1-Chloro-2-piperidin-1-yl-ethylidene)-piperidin-1-yl]-1-cyclopropyl-6-fluoro-4-oxo-1,4-dihydro-quinoline-3-carboxylic acid] | 0.5 (≈ 1.05 µM) | 2 (≈ 4.22 µM) | > 16 | > 16 | 2 (≈ 4.22 µM) | – | – | – |
| COc1c(N2CCC(=C(C)CN)CC2)c(F)cc2c(=O)c(C(=O)O)cn(C3CC3)c12 [Compound 6, 7-[4-(2-Amino-1-methyl-ethylidene)-piperidin-1-yl]-1-cyclopropyl-6-fluoro-8-methoxy-4-oxo-1,4-dihydro-quinoline-3-carboxylic acid] | 0.03 (≈ 0.0722 µM) | 0.06 (≈ 0.144 µM) | – | 0.5 (≈ 1.2 µM) | – | – | – | – |
| N#CC(CN)=C1CCN(c2cc3c(cc2F)c(=O)c(C(=O)O)cn3C2CC2)CC1 [Compound 285, 7-[4-(2-Amino-1-cyano-ethylidene)-piperidin-1-yl]-1-cyclopropyl-6-fluoro-4-oxo-1,4-dihydro-quinoline-3-carboxylic Acid] | 0.25 (≈ 0.631 µM) | 1 (≈ 2.52 µM) | – | 8 (≈ 20.2 µM) | > 16 | – | – | – |
| C[C@H]1COc2c(N3CC(=C(Cl)CN)C3)c(F)cc3c(=O)c(C(=O)O)cn1c23 [Compound 77, 9-[3-(2-Amino-1-chloro-ethylidene)-azetidin-1-yl}-8-fluoro-(3S)-3-methyl-6-oxo-2,3-dihydro-6H-1-oxa-3a-aza-phenalene-5-carboxylic acid] | 0.12 (≈ 0.305 µM) | 1 (≈ 2.54 µM) | 8 (≈ 20.3 µM) | 16 (≈ 40.6 µM) | 16 (≈ 40.6 µM) | – | – | – |
| C[C@H]1COc2c(N3CCC/C(=C\CN)C3)c(F)cc3c(=O)c(C(=O)O)cn1c23 [Compound 401, (E)-9-[3-(2-Amino-ethylidene)-piperidin-1-yl]-8-fluoro-(3S)-3-methyl-6-oxo-2,3-dihydro-6H-1-oxa-3a-aza-phenalene-5-carboxylic acid] | 1 (≈ 2.58 µM) | 8 (≈ 20.6 µM) | – | > 16 | > 16 | – | – | – |
| NC/C=C1\CCCN(c2cc3c(cc2F)c(=O)c(C(=O)O)cn3C2CC2)C1 [Compound 384, (E)-7-[3-(2-Amino-ethylidene)-piperidin-1-yl]-1-cyclopropyl-6-fluoro-4-oxo-1,4-dihydro-quinoline-3-carboxylic acid] | 1 (≈ 2.69 µM) | 8 (≈ 21.5 µM) | – | > 16 | > 16 | – | – | – |
| NC/C(Cl)=C1/CCCN(c2c(F)cc3c(=O)c(C(=O)O)cn(C4CC4)c3c2OC(F)F)C1 [Compound 260, (E)-7-[3-(2-Amino-1-chloro-ethylidene)-piperidin-1-yl]-1-cyclopropyl-8-difluoromethoxy-6-fluoro-4-oxo-1,4-dihydro-quinoline-3-carboxylic acid] | 0.03 (≈ 0.0636 µM) | 0.06 (≈ 0.127 µM) | – | 0.5 (≈ 1.06 µM) | 0.06 (≈ 0.127 µM) | – | – | – |
| NC/C=C1/CCCN(c2cc3c(cc2F)c(=O)c(C(=O)O)cn3C2CC2)C1 [Compound 383, (Z)-7-[3-(2-Amino-ethylidene)-piperidin-1-yl]-1-cyclopropyl-6-fluoro-4-oxo-1,4-dihydro-quinoline-3-carboxylic acid] | 0.12 (≈ 0.323 µM) | 1 (≈ 2.69 µM) | 8 (≈ 21.5 µM) | > 16 | > 16 | – | – | – |
| C/C(CN)=C1\CCCN(c2nc3c(cc2F)c(=O)c(C(=O)O)cn3C2CC2)C1.O=C(O)C(F)(F)F [Compound 297, (Z)-7-[3-(1-Amino-2-propylidene)-piperidin-1-yl]-1-cyclopropyl-6-fluoro-4-oxo-1,4-dihydro-[1,8]naphthyridine-3-carboxylic Acid Trifluoroacetic Acid Salt] | 0.25 | 1 | 16 | 16 | 16 | – | – | – |
| NC/C(F)=C1\CCCN(c2nc3c(cc2F)c(=O)c(C(=O)O)cn3C2CC2)C1 [Compound 374, (Z)-7-[3-(2-Amino-1-fluoro-ethylidene)-piperidin-1-yl]-1-cyclopropyl-6-fluoro-4-oxo-1,4-dihydro-[1,8]naphthyridine-3-carboxylic acid] | 0.06 (≈ 0.154 µM) | 0.5 (≈ 1.28 µM) | 2 (≈ 5.12 µM) | 16 (≈ 41 µM) | 4 (≈ 10.2 µM) | – | – | – |
| Cc1c(F)c(N2CCC/C(=C(\Cl)CN)C2)cc2c1c(=O)c(C(=O)O)cn2C1CC1 [Compound 426, (E)-7-[3-(2-Amino-1-chloro-ethylidene)-piperidin-1-yl]-1-cyclopropyl-6-fluoro-5-methyl-4-oxo-1,4-dihydro-quinoline-3-carboxylic acid] | ≤ 0.015 | 0.06 (≈ 0.143 µM) | ≤ 0.5 | 1 (≈ 2.38 µM) | 0.25 (≈ 0.595 µM) | – | – | – |
| Nc1nc(-n2cc(C(=O)O)c(=O)c3cc(F)c(N4CC(=C(F)CO)C4)c(Cl)c32)c(F)cc1F [Compound 419, 1-(6-Amino-3,5-difluoro-pyridin-2-yl)-8-chloro-6-fluoro-7-[3-(1-fluoro-2-hydroxy-ethylidene)-azetidin-1-yl]-4-oxo-1,4-dihydro-quinoline-3-carboxylic acid] | ≤ 0.015 | ≤ 0.015 | 0.03 (≈ 0.0619 µM) | 0.25 (≈ 0.516 µM) | 0.06 (≈ 0.124 µM) | – | – | – |
